Legend:
[1] = organism: Rattus norvegicus; assay: Ratio of Ki for CRL:CD(SD)BR-COBS rat brain hippocampus 5HT1A to Ki for CRL:CD(SD)BR-COBS rat brain cortex alpha1-AR; assay type: tissue-based
[2] = molecular target: T1, Adrenergic receptor alpha-1 (Rattus norvegicus, UniProt P15823+P23944+P43140); assay: Displacement of [3H]prazosin from alpha1-ARs in CRL:CD(SD)BR-COBS rat brain cortex after 30 mins by liquid scintillation spectrometry
T1 sequence (P15823 whole entry): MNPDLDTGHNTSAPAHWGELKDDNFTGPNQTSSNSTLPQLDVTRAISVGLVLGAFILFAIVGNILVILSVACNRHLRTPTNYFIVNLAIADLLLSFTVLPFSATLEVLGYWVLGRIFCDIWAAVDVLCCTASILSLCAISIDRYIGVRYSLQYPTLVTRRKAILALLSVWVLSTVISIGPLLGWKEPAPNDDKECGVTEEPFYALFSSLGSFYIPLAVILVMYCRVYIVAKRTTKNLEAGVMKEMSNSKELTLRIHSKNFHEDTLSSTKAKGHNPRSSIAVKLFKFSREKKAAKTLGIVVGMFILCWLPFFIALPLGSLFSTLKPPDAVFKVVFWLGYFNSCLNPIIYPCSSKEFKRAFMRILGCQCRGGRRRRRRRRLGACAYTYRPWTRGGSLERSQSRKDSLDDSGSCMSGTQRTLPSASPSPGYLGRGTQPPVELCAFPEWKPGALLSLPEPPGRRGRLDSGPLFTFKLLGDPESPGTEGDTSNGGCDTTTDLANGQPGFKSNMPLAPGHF
T1 sequence (P23944 whole entry): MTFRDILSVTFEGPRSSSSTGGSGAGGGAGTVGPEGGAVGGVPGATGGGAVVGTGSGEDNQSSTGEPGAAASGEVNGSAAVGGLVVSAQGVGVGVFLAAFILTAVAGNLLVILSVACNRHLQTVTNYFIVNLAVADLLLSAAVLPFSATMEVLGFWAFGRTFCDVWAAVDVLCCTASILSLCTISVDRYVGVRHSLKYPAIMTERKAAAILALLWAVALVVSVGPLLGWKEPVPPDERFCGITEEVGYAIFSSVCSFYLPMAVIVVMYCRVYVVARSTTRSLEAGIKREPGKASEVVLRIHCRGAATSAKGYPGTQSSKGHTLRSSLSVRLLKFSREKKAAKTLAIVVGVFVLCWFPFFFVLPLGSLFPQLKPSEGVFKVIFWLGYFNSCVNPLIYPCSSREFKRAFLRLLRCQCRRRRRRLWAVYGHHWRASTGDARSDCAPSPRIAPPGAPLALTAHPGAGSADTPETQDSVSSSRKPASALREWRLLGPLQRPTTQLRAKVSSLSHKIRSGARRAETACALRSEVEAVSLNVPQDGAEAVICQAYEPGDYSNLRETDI
T1 sequence (P43140 whole entry): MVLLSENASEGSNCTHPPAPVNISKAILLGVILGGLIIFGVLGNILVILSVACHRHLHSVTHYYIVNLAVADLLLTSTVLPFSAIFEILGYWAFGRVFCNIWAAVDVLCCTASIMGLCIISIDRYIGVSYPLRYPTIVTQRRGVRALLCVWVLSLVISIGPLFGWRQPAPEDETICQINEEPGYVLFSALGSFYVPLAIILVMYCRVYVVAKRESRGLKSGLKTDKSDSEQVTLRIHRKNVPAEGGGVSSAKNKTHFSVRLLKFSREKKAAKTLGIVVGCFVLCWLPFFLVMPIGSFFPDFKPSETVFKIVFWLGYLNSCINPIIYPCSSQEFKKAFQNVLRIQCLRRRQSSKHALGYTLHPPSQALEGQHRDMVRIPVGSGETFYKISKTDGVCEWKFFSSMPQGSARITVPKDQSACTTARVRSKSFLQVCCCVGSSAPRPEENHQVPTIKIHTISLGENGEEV

[3] = molecular target: T2, 5-hydroxytryptamine receptor 1A (Rattus norvegicus, UniProt P19327); assay: Displacement of [3H]-8-OH-DPAT from 5HT1A in CRL:CD(SD)BR-COBS rat brain hippocampus after 30 mins by liquid scintillation spectrometry; assay type: tissue-based
T2 sequence (P19327 whole entry): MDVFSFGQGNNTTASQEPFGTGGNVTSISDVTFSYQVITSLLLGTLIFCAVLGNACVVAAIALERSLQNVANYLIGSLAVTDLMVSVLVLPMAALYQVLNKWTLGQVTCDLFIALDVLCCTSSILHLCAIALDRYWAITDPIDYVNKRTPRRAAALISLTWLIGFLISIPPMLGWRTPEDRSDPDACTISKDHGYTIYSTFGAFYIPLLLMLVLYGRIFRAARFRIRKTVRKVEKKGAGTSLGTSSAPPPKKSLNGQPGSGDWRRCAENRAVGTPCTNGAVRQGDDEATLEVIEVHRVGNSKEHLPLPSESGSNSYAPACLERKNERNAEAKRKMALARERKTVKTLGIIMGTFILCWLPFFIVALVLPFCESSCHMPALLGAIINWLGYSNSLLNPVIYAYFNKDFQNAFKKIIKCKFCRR

| SMILES | Ratio Ki [1] | Ki [2] [nM] | Ki [3] [nM] |
| --- | --- | --- | --- |
| O=c1[nH]c2[nH]c(-c3ccc(OCCOc4ccccc4)cc3)cc2c(=O)n1CCN1CCN(c2ccccc2Cl)CC1 | > 79 | 126 | > 10000 |
| COc1ccccc1N1CCN(CCn2c(=O)[nH]c3[nH]c(-c4ccc(OCc5ccccc5)cc4)cc3c2=O)CC1 | 76 | 10.31 | 784 |
| O=c1[nH]c2[nH]c(-c3ccc(-c4ccccc4)cc3)cc2c(=O)n1CCN1CCN(c2ccccc2Cl)CC1 | > 54.6 | 183 | > 10000 |
| O=c1[nH]c2[nH]c(-c3ccccc3)c(-c3ccccc3)c2c(=O)n1CCN1CCN(c2ccccc2Cl)CC1 | 129 | 11.9 | 1540 |
| O=c1[nH]c2[nH]c(-c3ccc(Cl)cc3)cc2c(=O)n1CCN1CCN(c2ccccc2Cl)CC1 | > 500 | 2.64 | 1510 |
| COc1ccc(-c2cc3c(=O)n(CCN4CCN(c5ccccc5OC)CC4)c(=O)n(Cc4ccccc4OC)c3[nH]2)cc1 | 11.6 | 15.86 | 184 |
| COc1ccccc1N1CCN(CCn2c(=O)[nH]c3[nH]c(-c4ccc(OCCOc5ccccc5)cc4)cc3c2=O)CC1 | > 186 | 53.63 | > 10000 |
| COc1ccccc1N1CCN(CCn2c(=O)[nH]c3cc(C(C)(C)C)[nH]c3c2=O)CC1 | 27.7 | 1.69 | 46.7 |
| COc1ccccc1N1CCN(CCn2c(=O)c3cc(-c4ccccc4)[nH]c3n(Cc3ccccc3)c2=O)CC1 | 8.08 | 24.5 | 198 |
| COc1ccccc1N1CCN(CCn2c(=O)[nH]c3c(-c4ccccc4)c[nH]c3c2=O)CC1 | 6.44 | 2.08 | 13.4 |
| COc1ccccc1N1CCN(CCn2c(=O)[nH]c3cc(-c4ccco4)[nH]c3c2=O)CC1 | 8.54 | 3.38 | 28.9 |
| O=c1[nH]c2cc(-c3ccco3)[nH]c2c(=O)n1CCN1CCN(c2ccccc2Cl)CC1 | 15.5 | 14.17 | 220 |
| O=c1[nH]c2c(-c3ccccc3Cl)c[nH]c2c(=O)n1CCN1CCN(c2ccccc2Cl)CC1 | 71.5 | 1.14 | 81.5 |
| COc1ccc(-c2cc3c(=O)n(CCN4CCN(c5ccccc5Cl)CC4)c(=O)n(Cc4ccccc4OC)c3[nH]2)cc1 | 52.3 | 89.2 | 4670 |
| Cc1ccc(-c2c[nH]c3c(=O)n(CCN4CCN(c5ccccc5Cl)CC4)c(=O)[nH]c23)cc1 | > 2000 | 4.96 | > 10000 |
| O=c1[nH]c2[nH]c(-c3ccc(OCc4ccccc4)cc3)cc2c(=O)n1CCN1CCN(c2ccccc2Cl)CC1 | > 141 | 70.91 | > 10000 |
| O=c1c2cc(-c3ccccc3)[nH]c2n(Cc2ccccc2)c(=O)n1CCN1CCN(c2ccccc2Cl)CC1 | 28.8 | 35.41 | 1020 |
| O=c1[nH]c2[nH]c(-c3ccc(Oc4ccccc4)cc3)cc2c(=O)n1CCN1CCN(c2ccccc2Cl)CC1 | 37.8 | 125 | 4720 |
| COc1ccccc1N1CCN(CCn2c(=O)[nH]c3cc(-c4ccc(Cl)cc4)[nH]c3c2=O)CC1 | > 1000 | – | – |
| O=c1[nH]c2cc(-c3ccc(Cl)cc3)[nH]c2c(=O)n1CCN1CCN(c2ccccc2Cl)CC1 | > 800 | – | – |
| COc1ccccc1N1CCN(CCn2c(=O)[nH]c3[nH]c(-c4ccc(Cl)cc4)cc3c2=O)CC1 | 98.4 | 4.08 | 401 |
| COc1ccccc1N1CCN(CCn2c(=O)[nH]c3[nH]c(-c4ccc(Oc5ccccc5)cc4)cc3c2=O)CC1 | 0.39 | 43.71 | 17.1 |
| O=c1[nH]c2c(-c3ccccc3)c[nH]c2c(=O)n1CCN1CCN(c2ccccc2Cl)CC1 | 37.8 | 1.14 | 43.1 |
| COc1ccccc1N1CCN(CCn2c(=O)[nH]c3[nH]c(-c4ccc(-c5ccccc5)cc4)cc3c2=O)CC1 | 67.8 | 54.3 | 3680 |
| COc1ccccc1N1CCN(CCn2c(=O)[nH]c3c(-c4ccc(Cl)cc4)c[nH]c3c2=O)CC1 | 9.7 | 3.36 | 32.6 |
| CC(C)(C)c1cc2[nH]c(=O)n(CCN3CCN(c4ccccc4Cl)CC3)c(=O)c2[nH]1 | 46.9 | 1.39 | 65.1 |
| O=c1[nH]c2c(-c3ccc(Cl)cc3)c[nH]c2c(=O)n1CCN1CCN(c2ccccc2Cl)CC1 | > 3500 | 2.71 | > 10000 |
| COc1ccccc1N1CCN(CCn2c(=O)[nH]c3[nH]c(-c4ccccc4)c(-c4ccccc4)c3c2=O)CC1 | 96.7 | 4.82 | 466 |

Source: ChEMBL document CHEMBL1817545, “Synthesis and molecular modeling of 1H-pyrrolopyrimidine-2,4-dione derivatives as ligands for the α1-adrenoceptors” (Bioorg Med Chem, 2011)
